Measured values taken from ChEMBL document CHEMBL1201862, “PubChem BioAssay data set” (2004).
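96-well plates; 48 h exposure; 5 concentrations. Endpoints by linear interpolation between flanking doses. Not reached: highest tested concentration assigned. GI50 = concentration required for 50% inhibition of growth.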 Active and inactive are the calls of the source. Rule as the data show it: active = GI50 up to about 1.1 µM and inactive = higher.

Columns and labels:
Experiment in all cases: NCI tumour cell line growth inhibition, 48 h
MOLT-4 = system: MOLT-4
SF-295 = system: SF-295
NCI-H460 = system: NCI-H460
SNB-19 = system: SNB-19
DU-145 = system: DU-145
TK-10 = system: TK-10
A549 = system: A549
KM12 = system: KM12
OVCAR-3 = system: OVCAR-3
HOP-62 = system: HOP-62
Hs-578T = system: Hs-578T
HT-29 = system: HT-29
SK-MEL-28 = system: SK-MEL-28
786-0 = system: 786-0
SF-268 = system: SF-268
SF-539 = system: SF-539
HL-60 = system: HL-60
OVCAR-4 = system: OVCAR-4
UACC-257 = system: UACC-257
EKVX = system: EKVX

Measured: GI50

CC(=O)OCC1OC(n2c3c(c(-c4ccc(Cl)cc4)c(C#N)c2=S)C(=O)CC(C)(C)C3)C(OC(C)=O)C(OC(C)=O)C1OC(C)=O (stereo not given)
inactive: MOLT-4 4.45 µM | SF-295 32.6 µM | NCI-H460 33.7 µM | SNB-19 > 45.4 µM | DU-145 50.9 µM | TK-10 > 100 µM | A549 38 µM | KM12 29.7 µM | OVCAR-3 32.7 µM | HOP-62 42 µM | Hs-578T 20.7 µM | HT-29 15.7 µM | SK-MEL-28 23.6 µM | 786-0 12.8 µM | SF-268 12.1 µM | SF-539 21.1 µM | HL-60 5.33 µM | OVCAR-4 17.8 µM | UACC-257 15.2 µM

Cc1ccc(/C=N/Nc2ccc3ccccc3n2)s1
inactive: MOLT-4 9.55 µM | SF-295 16.4 µM | EKVX 4.73 µM | SNB-19 21.3 µM | DU-145 > 10 µM | TK-10 22.1 µM | A549 14.3 µM | KM12 32.3 µM | OVCAR-3 5.58 µM | HOP-62 20.8 µM | Hs-578T 25.2 µM | HT-29 7.46 µM | SK-MEL-28 17.2 µM | 786-0 18.8 µM | SF-268 60.1 µM | SF-539 83.4 µM | HL-60 41.5 µM | OVCAR-4 20.7 µM | UACC-257 6.01 µM

CC1=CC(C)(C)[C@H]2O[C@@]3(O)C[C@]4(C)[C@H]5C[C@@](C(C)C)(O[C@H]4c4ccoc4)O[C@H]4[C@]5(C3)O[C@@]1(O)[C@]24O
inactive: MOLT-4 > 100 µM | SF-295 > 100 µM | EKVX > 100 µM | SNB-19 45.4 µM | DU-145 > 100 µM | TK-10 > 100 µM | A549 75.9 µM | KM12 > 100 µM | OVCAR-3 > 100 µM | HOP-62 23.5 µM | Hs-578T 18.7 µM | HT-29 > 100 µM | SK-MEL-28 81.8 µM | 786-0 89.1 µM | SF-268 > 100 µM | SF-539 > 100 µM | HL-60 > 100 µM | OVCAR-4 54.2 µM | UACC-257 > 100 µM

Cc1ccc2nc3n(c2c1)C(c1c(F)cccc1F)SC3 (stereo not given)
inactive: MOLT-4 63.8 µM | SF-295 > 100 µM | NCI-H460 > 100 µM | SNB-19 > 100 µM | DU-145 > 100 µM | TK-10 > 100 µM | A549 > 100 µM | KM12 > 100 µM | OVCAR-3 > 100 µM | HOP-62 > 100 µM | Hs-578T > 100 µM | HT-29 > 100 µM | SK-MEL-28 > 100 µM | 786-0 > 100 µM | SF-268 > 100 µM | SF-539 > 100 µM | HL-60 71.6 µM | OVCAR-4 > 100 µM | UACC-257 > 100 µM

COc1ccc(N2C(=O)C(=O)N(c3ccc(/N=N\c4ccccc4)cc3)C2=S)cc1
inactive: MOLT-4 32.9 µM | SF-295 18.7 µM | NCI-H460 18.3 µM | EKVX 17.9 µM | SNB-19 21.9 µM | DU-145 16 µM | TK-10 20.7 µM | A549 20.2 µM | KM12 17.5 µM | HOP-62 18.6 µM | Hs-578T 27.4 µM | HT-29 18.6 µM | SK-MEL-28 23.2 µM | 786-0 17.5 µM | SF-268 22.1 µM | SF-539 19.2 µM | HL-60 47.3 µM | OVCAR-4 18.2 µM | UACC-257 18.4 µM

Nc1cccnc1NCC1(CO)CCCC1
inactive: MOLT-4 > 100 µM | SF-295 > 100 µM | NCI-H460 > 100 µM | EKVX > 100 µM | DU-145 > 100 µM | TK-10 > 100 µM | A549 > 100 µM | KM12 > 100 µM | OVCAR-3 > 100 µM | HOP-62 > 100 µM | Hs-578T > 100 µM | HT-29 > 100 µM | SK-MEL-28 > 100 µM | 786-0 > 100 µM | SF-268 > 100 µM | SF-539 > 100 µM | HL-60 > 100 µM | OVCAR-4 > 100 µM | UACC-257 > 100 µM

O=C1CCc2ccc(O)c(c2)Oc2ccc(cc2)C(Sc2ccccc2)CCO1 (stereo not given)
inactive: MOLT-4 22.1 µM | SF-295 17.4 µM | EKVX 12.5 µM | SNB-19 19.7 µM | DU-145 17.8 µM | TK-10 16 µM | A549 18.6 µM | KM12 15 µM | OVCAR-3 10.9 µM | HOP-62 12.9 µM | Hs-578T 14.7 µM | HT-29 15.9 µM | SK-MEL-28 15.4 µM | 786-0 16 µM | SF-268 15.7 µM | SF-539 15.8 µM | HL-60 17.7 µM | OVCAR-4 12.2 µM | UACC-257 16 µM

CCc1cccc(CC)c1Nc1nc(-c2ccccc2-c2ccccc2)cs1
inactive: MOLT-4 75.2 µM | SF-295 > 100 µM | NCI-H460 65.3 µM | EKVX > 100 µM | SNB-19 > 100 µM | DU-145 > 100 µM | TK-10 82.2 µM | A549 > 100 µM | KM12 94.8 µM | OVCAR-3 57.1 µM | HOP-62 > 100 µM | Hs-578T 70.6 µM | SK-MEL-28 > 100 µM | 786-0 > 100 µM | SF-268 > 100 µM | SF-539 > 100 µM | HL-60 55.7 µM | OVCAR-4 > 100 µM | UACC-257 > 100 µM

COc1ccc(S(=O)(=O)Nc2ccc(-c3csc(N4C(=O)/C(=C/C=C\c5ccccc5)N=C4c4ccccc4)n3)cc2)cc1Cl
inactive: MOLT-4 22.8 µM | SF-295 38.5 µM | NCI-H460 32.1 µM | SNB-19 33.7 µM | DU-145 31.8 µM | TK-10 38.5 µM | A549 28.9 µM | KM12 29 µM | OVCAR-3 26.7 µM | HOP-62 31.3 µM | Hs-578T 29.9 µM | HT-29 56.8 µM | SK-MEL-28 59.7 µM | 786-0 31.3 µM | SF-268 19.1 µM | SF-539 36.6 µM | HL-60 14 µM | OVCAR-4 25.9 µM | UACC-257 33 µM

CC[C@H]1C=CCC[C@@]2(C[C@@H]3CC[C@H]4[C@@H](C(=O)OCCCCCCCCCCCCCCCC(=O)N(CCCN)C[C@@H](O)CCN)[C@@]5(CCC[C@@H](C)O5)NC(=[N+]34)N2)O1
inactive: MOLT-4 1.23 µM | SF-295 1.9 µM | NCI-H460 1.74 µM | EKVX 1.76 µM | DU-145 1.8 µM | TK-10 1.58 µM | A549 1.77 µM | KM12 1.57 µM | OVCAR-3 3.91 µM | HOP-62 1.69 µM | Hs-578T 1.83 µM | HT-29 1.61 µM | SK-MEL-28 1.36 µM | 786-0 1.88 µM | SF-268 1.93 µM | SF-539 1.4 µM | HL-60 2.14 µM | OVCAR-4 3.4 µM | UACC-257 1.75 µM
